US20080269200A1, “Indole Derivatives and Use Thereof as Kinase Inhibitors in Particular Ikk2 Inhibitors” (SmithKline Beecham Corporation, priority 2004, published 2008)

Each molecule was assayed against T1, Recombinant human IKK2 (residues 1-737) (Homo sapiens, UniProt O14920) (assay: IKK2 Assay (TR-FRET)). Settings: IKK2 5 nM, GST-IκBα substrate 25 nM, ATP 1 μM, 30 minutes at room temperature.
T1 construct: Recombinant human IKK2 (residues 1-737) was expressed in baculovirus as a C-terminal GST-tagged fusion protein; GST (C); made in house
T1 sequence (O14920 1-737): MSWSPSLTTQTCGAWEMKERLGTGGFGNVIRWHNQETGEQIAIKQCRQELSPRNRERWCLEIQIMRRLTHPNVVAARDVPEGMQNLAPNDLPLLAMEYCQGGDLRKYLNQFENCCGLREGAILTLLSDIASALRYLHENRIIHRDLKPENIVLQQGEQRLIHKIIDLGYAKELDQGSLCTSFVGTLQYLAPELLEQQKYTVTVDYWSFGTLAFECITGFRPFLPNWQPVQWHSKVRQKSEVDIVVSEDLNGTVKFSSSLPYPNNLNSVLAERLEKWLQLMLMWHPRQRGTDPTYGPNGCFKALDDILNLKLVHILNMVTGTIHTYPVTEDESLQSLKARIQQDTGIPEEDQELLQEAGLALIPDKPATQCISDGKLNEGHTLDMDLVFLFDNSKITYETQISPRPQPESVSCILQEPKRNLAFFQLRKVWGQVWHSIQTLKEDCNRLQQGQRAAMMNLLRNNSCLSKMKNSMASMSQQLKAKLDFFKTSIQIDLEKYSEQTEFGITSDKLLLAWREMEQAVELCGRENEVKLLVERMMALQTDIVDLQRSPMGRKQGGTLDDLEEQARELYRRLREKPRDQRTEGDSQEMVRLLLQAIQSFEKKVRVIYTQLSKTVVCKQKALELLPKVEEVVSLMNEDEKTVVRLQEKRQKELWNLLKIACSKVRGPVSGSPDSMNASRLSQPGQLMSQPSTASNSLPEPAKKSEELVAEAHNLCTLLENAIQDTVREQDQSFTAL
Format: biochemical
Procedure: Recombinant human IKK2 (residues 1-737) was expressed in baculovirus as a C-terminal GST-tagged fusion protein, and its activity was assessed using a time-resolved fluorescence resonance energy transfer (TR-FRET) assay. Briefly, IKK2 (5 nM final) diluted in assay buffer (50 mM HEPES, 10 mM MgCl2, 1 mM CHAPS pH 7.4 with 1 mM DTT and 0.01% w/v BSA) was added to wells containing various concentrations of compound or DMSO vehicle (3% final). The reaction was initiated by the addition of GST-IκBα substrate (25 nM final)/ATP (1 μM final), in a total volume of 30 μl. The reaction was incubated for 30 minutes at room temperature, then terminated by the addition of 15 μl of 50 mM EDTA. Detection reagent (15 μl) in buffer (100 mM HEPES pH 7.4, 150 mM NaCl and 0.1% w/v BSA) containing antiphosphoserine-IκBα-32/36 monoclonal antibody 12C2 (Cell Signalling Technology, Beverly Mass., USA) labelled with W-1024 europium chelate (Wallac O Y, Turku, Finland), and an APC-labelled anti-GST antibody (Prozyme, San Leandro, Calif., USA) was added and the reaction was further incubated for 60 minutes at room temperature. The degree of phosphorylation of GST-IκBα was measured using a Packard Discovery plate reader (Perkin-Elmer Life Sciences, Pangboume, UK) as a ratio of specific 665 nm energy transfer signal to reference europium 620 nm signal.

SMILES | IC50 [µM]
NC(=O)c1cc(-c2ccc(Cl)cc2)cc2cc[nH]c12 [Example 7, 5-(4-chlorophenyl)-1H-indole-7-carboxamide] | < 15.8
NC(=O)c1cc(Br)cc2cc[nH]c12 [Intermediate 7, 5-bromo-1H-indole-7-carboxamide] | < 15.8
NC(=O)c1cc(Br)cc2c(C3CCNCC3)c[nH]c12 [Intermediate 30, 5-bromo-3-(4-piperidinyl)-1H-indole-7-carboxamide] | < 15.8
